Active and inactive are the calls of the source. No cut-off for these calls is given here.
How the values were obtained:
HEK293 [1] = test: Effect to arrest S-phase on HEK 293 cells at 50 uM was determined; Not significant; format: functional, cell-based; details: Homo sapiens
HEK293 [2] = test: Effect to arrest S-phase on HEK 293 cells at 10 uM was determined; format: functional, Homo sapiens
HEK293 [3] = test: Effect to arrest GI-phase on HEK 293 cells at 10 uM was determined; format: functional, Homo sapiens
HEK293 [4] = test: Effect to arrest G2/M-phase on HEK 293 cells at 10 uM was determined; format: functional, Homo sapiens
HEK293 [5] = test: Effect to arrest G2/M-phase on HEK 293 cells at 50 uM was determined; format: functional, Homo sapiens
HEK293 [6] = test: Effect to arrest S-phase on HEK 293 cells at 50 uM was determined; format: functional, Homo sapiens
HEK293 [7] = test: Effect to arrest GI-phase on HEK 293 cells at 50 uM was determined; format: functional, Homo sapiens
HEK293 [8] = test: Effect to arrest S-phase on HEK 293 cells at 1 uM was determined; format: functional, Homo sapiens
HEK293 [9] = test: Effect to arrest GI-phase on HEK 293 cells at 1 uM was determined; format: functional, Homo sapiens
HEK293 [10] = test: Effect to arrest G2/M-phase on HEK 293 cells at 1 uM was determined; format: functional, Homo sapiens
HEK293 [11] = test: Compound was tested for inhibition of HEK293 proliferation; format: functional, cell-based; details: Homo sapiens
HEK293 [12] = test: Effect to arrest G2/M-phase on HEK 293 cells at 25 uM was determined; format: functional, Homo sapiens
HEK293 [13] = test: Effect to arrest S-phase on HEK 293 cells at 25 uM was determined; format: functional, Homo sapiens
HEK293 [14] = test: Effect to arrest GI-phase on HEK 293 cells at 25 uM was determined; format: functional, Homo sapiens

| Compound | Activity (HEK293 [1]) | Effect (HEK293 [2]) [%] | Effect (HEK293 [3]) [%] | Effect (HEK293 [4]) [%] | further results |
| --- | --- | --- | --- | --- | --- |
| COc1cc(-c2c(OC)ccc3c2C(=O)O[C@@H]3[C@H]2c3c(cc4c(c3OC)OCO4)CCN2C)cc(OC)c1OC | inactive | – | – | – | – |
| COc1ccc2c(c1SCc1ccccc1)C(=O)O[C@@H]2[C@H]1c2c(cc3c(c2OC)OCO3)CCN1C | – | 65 | 24 | 11 | – |
| COc1ccc2c(c1OC)C(=O)O[C@@H]2[C@H]1c2c(cc3c(c2OC)OCO3)CCN1C [NOSCAPINE] | – | – | – | – | Effect (HEK293 [5]): 76%; Effect (HEK293 [6]): 18%; Effect (HEK293 [7]): 6% |
| COc1ccc2c(c1OCc1csc(C)n1)C(=O)O[C@@H]2[C@H]1c2c(cc3c(c2OC)OCO3)CCN1C | – | 62 | 28 | 10 | – |
| COc1cc(COc2c(OC)ccc3c2C(=O)O[C@@H]3[C@H]2c3c(cc4c(c3OC)OCO4)CCN2C)cc(OC)c1OC | – | 65 | 19 | 16 | Effect (HEK293 [5]): 6%; Effect (HEK293 [8]): 65%; Effect (HEK293 [9]): 24%; Effect (HEK293 [6]): 84%; Effect (HEK293 [7]): 13%; Effect (HEK293 [10]): 11%; EC50 (HEK293 [11]): 1.9 µM |
| COc1ccc2c(c1-c1ccc(C(C)(C)C)cc1)C(=O)O[C@@H]2[C@H]1c2c(cc3c(c2OC)OCO3)CCN1C | inactive | – | – | – | – |
| COc1ccc2c(c1-c1ccsc1)C(=O)O[C@@H]2[C@H]1c2c(cc3c(c2OC)OCO3)CCN1C | inactive | – | – | – | – |
| COc1ccc2c(c1OCc1ccsc1)C(=O)O[C@@H]2[C@H]1c2c(cc3c(c2OC)OCO3)CCN1C | – | – | – | – | Effect (HEK293 [12]): 10%; Effect (HEK293 [13]): 62%; Effect (HEK293 [14]): 28% |
| COc1ccc2c(c1OCc1ccccc1)C(=O)OC2[C@H]1c2c(cc3c(c2OC)OCO3)CCN1C (stereo not given in full) | – | 57 | 28 | 17 | Effect (HEK293 [12]): 15%; Effect (HEK293 [5]): 10%; Effect (HEK293 [13]): 71%; Effect (HEK293 [6]): 67%; Effect (HEK293 [7]): 23%; EC50 (HEK293 [11]): 15 µM; Effect (HEK293 [14]): 12% |
| COc1ccc2c(c1-c1cc(F)cc(F)c1)C(=O)O[C@@H]2[C@H]1c2c(cc3c(c2OC)OCO3)CCN1C | inactive | – | – | – | – |
| COc1cc2c(c(OC)c1OC)-c1ccc(OC)c(=O)cc1[C@@H](NC(C)=O)CC2 [COLCHICINE] | – | 14 | 3 | 83 | – |
| COc1ccc2c(c1-c1ccc(N(C)C)cc1)C(=O)O[C@@H]2[C@H]1c2c(cc3c(c2OC)OCO3)CCN1C | inactive | – | – | – | – |

— ChEMBL document CHEMBL1143587, “Discovery of S-phase arresting agents derived from noscapine” (J Med Chem, 2005)
